The test deals with T1, p53/MDM2 interaction [MDM2 (1-118) 6 his and GST-p53(1-50)] (Homo sapiens, UniProt Q00987).
T1 construct: The human MDM2 N-terminal fragment encompassing amino acids 1-118; made in house; host or cells: E. coli BL21/DE3 (MDM2-6His); E. coli DH5alpha (GST-p53)
Description: Measurement of the inhibition of p53/MDM2 interaction (modified ELISA). It is filed as binding. The conditions noted are these: 75 nM GST-p53 coated, 75 nM MDM2-6His, NTA-AP detection, optical density at 405 nm, compounds tested between 0 and 100 μM. As for the experimental part: The inhibition of the p53/MDM2 interaction by compounds was measured using a modified ELISA assay using a histidine tagged MDM2 [MDM2 (1-118) 6 his], a p53 GST fusion protein (GST-p53) and a nickel chelate-alkaline phosphatase (NTA-AP).
The human MDM2 N-terminal fragment encompassing amino acids 1-118 and immediately followed by a C-terminal 6-histidine tag sequence and then a stop codon was generated by PCR from a human placental cDNA library. The PCR product was initially cloned into pCR2.1 vector (Invitrogen) following the manufacturer's protocol. DNA sequencing confirmed a MDM fragment sequence identical to that of published MDM2 (EMBL accession no. Z12020). The MDM2-6His fragment was then subcloned into pTB375 E. coli expression vector to produce the expression vector pTB375-MDM2-6His (1-118) clone no. 11. The pTB375 vector is a modified T7 (Studier) Expression vector. Expression grows were performed in E. coli strain BL21/DE3 (obtained from Novagen Inc.) and expression of the recombinant protein was induced by addition of IPTG (isopropyl-β-D-1-thiogalactopyranoside). MDM2 (1-118) 6 his was purified from E. coli lysates using Ni-NTA beads (Qiagen). […]
100 μl of 75 nM GST-p53 was added per well to a 96 well plate (Nunc Maxisorp) and the plate left at 4° C. overnight. […] The optical density of each well was measured at 405 nm. […]
A general note: In an ELISA, binding on a coated surface is turned into a signal by an enzyme label.

T1 sequence (Q00987 1-118): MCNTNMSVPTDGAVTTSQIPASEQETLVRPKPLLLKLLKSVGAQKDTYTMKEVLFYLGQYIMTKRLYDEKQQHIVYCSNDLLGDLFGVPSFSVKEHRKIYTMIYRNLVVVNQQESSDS

The term IC50 denotes the concentration at which inhibition is half-maximal. A higher IC50 goes with lower potency. In the case of `Cc1occc1C(=O)N[C@@H](Cc1c[nH]c2ccccc12)C(=O)N1CCN(c2ccc([N+](=O)[O-])cc2)CC1` [Example 9, 2-Methyl-3-furoyl-Trp-piperazine-4-nitrophenyl], the IC50 is approximately 4 µM.

Source of the values: patent US6770627B1, “Piperizine-4-phenyl derivatives as inhibitors of the interaction between mdm2 and p 53” (AstraZeneca AB, priority 1998, dated 2004).
